Like-named read-outs stand apart in the source and are kept apart here. Blank lines part the entries; values can stand above or below the compound they belong to.
What was measured:
[1] = Plasma aztreonam after intraduodenal aztreonam/PEP (HPLC); type: in vivo; conditions: male, Sprague-Dawley, rat, rats
Experimental: (§1) The abdominal muscle was sutured under the skin. […] Four rats were in each treatment group. […]
Aztreonam solution (containing arginine as a pH adjuster) was mixed with a solution of methylcellulose, and this mixture was added to solutions of glucosamine and sucrose palmitate in water before administration to rats. […] The contents of aztreonam/PEP comprised an individual dosage of 40 mg/kg aztreonam, 400 mg/kg sucrose palmitate, glucosamine in a 1:4 mole ratio of aztreonam to glucosamine, methylcellulose in a 1:0.5 mole ratio of aztreonam to methylcellulose, and arginine in a 1:0.6 mole ratio of aztreonam to arginine. […] Plasma was analyzed by HPLC, and bioavailability was calculated.

[2] = Plasma calcitonin after intraduodenal calcitonin/PEP (ELISA); type: in vivo; conditions: male, Sprague-Dawley, rat, rats, read-out: Average plasma concentration of Calcitonin
Experimental: as §1
Plasma was analyzed by ELISA according to methods well known in the art.

[3] = Plasma isepamicin after intraduodenal isepamicin/PEP (HPLC); type: in vivo; conditions: male, Sprague-Dawley, rat, other: intraduodenal, rats
Experimental: as §1
Isepamicin solution was mixed with methylcellulose solution, and the resulting mixture was mixed with solutions of glucosamine and sucrose stearate 16 in water before administration to rats. […] The contents of isepamicin/PEP comprised an individual dosage of 75 mg/kg isepamicin, 400 mg/kg sucrose stearate, glucosamine in a 1:4 mole ratio of isepamicin to glucosamine, and methylcellulose in a 1:0.5 mole ratio of isepamicin to methylcellulose. […] Plasma was analyzed by HPLC, and bioavailability was calculated.

[4] = Plasma netilmicin after intraduodenal netilmicin/PEP (HPLC); type: in vivo; conditions: male, Sprague-Dawley, rat, rats
Experimental: as §1
(§2) Netilmicin solution was mixed with a solution of methylcellulose, and this mixture was added to solutions of glucosamine and sucrose stearate in water before administration to rats. […] The contents of netilmicin/PEP comprised an individual dosage of 80 mg/kg netilmicin, 400 mg/kg sucrose stearate, glucosamine in a 1:4 mole ratio of netilmicin to glucosamine, and methylcellulose in a 1:0.5 mole ratio of netilmicin to methylcellulose. […] Plasma was analyzed by HPLC, and bioavailability was calculated.

[5] = Plasma teicoplanin after intraduodenal teicoplanin/PEP (HPLC); type: in vivo; conditions: rats
Experimental: as §1
as §2, with “Teicoplanin” for “Netilmicin”, “teicoplanin/PEP” for “netilmicin/PEP”, “64” for “80”, “teicoplanin,” for “netilmicin,”, “teicoplanin” for “netilmicin”

[6] = system: diabetes induced rats; assay: Serum glucose after intraduodenal insulin/PEP in diabetic rats; type: in vivo; conditions: insulin 50 IU/kg in carrier (100 units)
From the text: as §1

[7] = diabetic rats, intraduodenal, insulin 50 IU/kg in carrier (100 units)
From the text: as §1

[8] = system: non-diabetic rats; assay: Serum glucose after intraduodenal insulin/PEP in non-diabetic rats; type: in vivo; conditions: insulin 50 IU/kg in carrier (100 units)
From the text: as §1

[9] = rat, in vivo
Experimental: To determine absorption from the intestine, male Sprague Dawley rats weighing 250-300 g with free access to water were fasted for about 18 h prior to experiments. These rats were anesthetized and maintained with Ketamine/Xylazine (([…])/(80 mg/kg)) by intraperitoneal injection. The small intestine was exposed by a midline abdominal incision. A small incision was made in the stomach to insert a polyethylene tube (i.d. 0.76 mm, o.d. 1.22 mm, Clay Adams), toward the middle duodenum, which was closed at the exposed end by a stopcock to prevent drainage of drug solution from the duodenum. Blood samples were taken with a heparinized syringe through the jugular vein catheter at predetermined time intervals. After collecting, samples were coagulated for about 90 min and then were centrifuged for 10 min at 6000 rpm. The supernatant was removed and stored at −20° C. Samples were analyzed for hGH protein levels with a Human Growth Hormone ELISA Kit (coated plate, ICN Diagnostics) according to the manufacturer's protocol.
For the controls, either glucosamine 40 mg/kg plus sucrose laurate 40 mg/kg (i.e., 100 units of carrier) or 10 mg/kg of rhGH (Advanced Protein Technologies Inc., Suwon, Korea) were administered per intraduodenum. […] To evaluate the effect of varying the amount of carrier administered, the amount of rhGH was held at 3 mg/kg rhGH and the Tmax was measured. […] In the case of intraduodenal administration, the controls were fixed at 10 units of carrier. The amount of rhGH was varied to include 1, 3, and 10 mg/kg of rhGH.
Finally, to evaluate the effectiveness of the carrier itself, the type of carrier was varied while maintaining the same level of rhGH (3 mg/kg).

[10] = Decomposition test: rhGH concentration by ELISA after shaking; type: physicochemical
Experimental: A solution of rhGH (5 ng/mL) was prepared in 20 mM phosphate buffer. The phosphate buffer was prepared in triple-distilled, filtered water (0.22 μm filter), and its pH was adjusted to pH 7.4 with sodium hydroxide solution. Solutions of rhGH were shaken for 1 min at high speed with a vortex mixer (Scientific Industries Inc.). After shaking, samples were equilibrated for specific time intervals at room temperature. Concentrations of rhGH were then determined by ELISA according to methods well known in the art.

[11] = Intraduodenal absorption of rhGH/PEP solutions, rhGH by ELISA (Example 3); type: in vivo, male Sprague-Dawley rats; conditions: rats, rhGH administered without PEP solution
Experimental: RhGH solutions containing a promoter (glucosamine or poly-L-lysine), an enhancer (sucrose laurate 16), and a protector (methylcellulose) were prepared in water according to the proportions set out in Table 2.
as §1

- concentration at 60 min ([1]; other: intraduodenal, aztreonam/PEP 40 mg/kg aztreonam, 60 min): 97000 ng/mL
- concentration at 90 min ([1]; other: intraduodenal, aztreonam/PEP 40 mg/kg aztreonam, 90 min): 87900 ng/mL
- concentration at 120 min ([1]; other: intraduodenal, aztreonam/PEP 40 mg/kg aztreonam, 120 min): 89600 ng/mL
- concentration at 180 min ([1]; other: intraduodenal, aztreonam/PEP 40 mg/kg aztreonam, 180 min): 67000 ng/mL
- concentration at 240 min ([1]; other: intraduodenal, aztreonam/PEP 40 mg/kg aztreonam, 240 min): 55200 ng/mL
- concentration at 30 min ([1]; other: intraduodenal, aztreonam/PEP (40 mg/kg aztreonam, 400 mg/kg sucrose palmitate, glucosamine, methylcellulose, arginine), 30 min): 95400 ng/mL
- bioavailability ([1]; aztreonam/PEP 40 mg/kg aztreonam, read-out: percent bioavailability): 91.1 ± 14.6%
Compound: C[C@H]1[C@H](NC(=O)/C(=N\OC(C)(C)C(=O)O)c2csc(N)n2)C(=O)N1S(=O)(=O)O [Aztreonam]

- level at 0.5 h ([2]; calcitonin/PEP 2 mg/kg calcitonin, 30 min): 8.61 ng/mL
- level at 0.75 h ([2]; calcitonin/PEP 2 mg/kg calcitonin, 45 min): 10.9 ng/mL
- level at 1 h ([2]; calcitonin/PEP 2 mg/kg calcitonin, 60 min): 7.55 ng/mL
- level at 1.5 h ([2]; calcitonin/PEP 2 mg/kg calcitonin, 90 min): 3.36 ng/mL
- level at 2 h ([2]; calcitonin/PEP 2 mg/kg calcitonin, 120 min): 1.72 ng/mL
- level at 3 h ([2]; calcitonin/PEP 2 mg/kg calcitonin, 180 min): 0.69 ng/mL
- level at 4 h ([2]; calcitonin/PEP 2 mg/kg calcitonin, 240 min): 0.99 ng/mL
- level at 0.25 h ([2]; calcitonin/PEP (2 mg/kg calcitonin, 40 mg/kg sucrose laurate 16, glucosamine, methylcellulose), 15 min): 8.02 ng/mL
Compound: CC(C)C[C@H](NC(=O)[C@H](CCCCN)NC(=O)CNC(=O)[C@H](CC(C)C)NC(=O)[C@@H](NC(=O)[C@@H]1CSSC[C@H](N)C(=O)N[C@@H](CO)C(=O)N[C@@H](CC(N)=O)C(=O)N[C@@H](CC(C)C)C(=O)N[C@@H](CO)C(=O)N[C@@H]([C@@H](C)O)C(=O)N1)C(C)C)C(=O)N[C@@H](CO)C(=O)N[C@@H](CCC(N)=O)C(=O)N[C@@H](CCC(=O)O)C(=O)N[C@@H](CC(C)C)C(=O)N[C@@H](Cc1c[nH]cn1)C(=O)N[C@@H](CCCCN)C(=O)N[C@@H](CC(C)C)C(=O)N[C@@H](CCC(N)=O)C(=O)N[C@H](C(=O)N[C@@H](Cc1ccc(O)cc1)C(=O)N1CCC[C@H]1C(=O)N[C@@H](CCCNC(=N)N)C(=O)N[C@H](C(=O)N[C@@H](CC(N)=O)C(=O)N[C@H](C(=O)NCC(=O)N[C@@H](CO)C(=O)NCC(=O)N[C@H](C(=O)N1CCC[C@H]1C(N)=O)[C@@H](C)O)[C@@H](C)O)[C@@H](C)O)[C@@H](C)O [Calcitonin]

- concentration at 60 min ([3]; isepamicin/PEP 75 mg/kg isepamicin, 60 min): 102000 ng/mL
- concentration at 120 min ([3]; isepamicin/PEP 75 mg/kg isepamicin, 120 min): 73600 ng/mL
- concentration at 180 min ([3]; isepamicin/PEP 75 mg/kg isepamicin, 180 min): 49900 ng/mL
- concentration at 240 min ([3]; isepamicin/PEP 75 mg/kg isepamicin, 240 min): 43900 ng/mL
- concentration at 360 min ([3]; isepamicin/PEP 75 mg/kg isepamicin, 360 min): 35800 ng/mL
- concentration at 30 min ([3]; isepamicin/PEP (75 mg/kg isepamicin, 400 mg/kg sucrose stearate, glucosamine, methylcellulose), 30 min): 84200 ng/mL
Compound: CN[C@@H]1[C@@H](O)[C@@H](O[C@@H]2[C@@H](O)[C@H](O[C@H]3O[C@H](CN)[C@@H](O)[C@H](O)[C@H]3O)[C@@H](N)C[C@H]2NC(=O)[C@@H](O)CN)OC[C@]1(C)O [Isepamicin]

- concentration at 60 min ([4]; other: intraduodenal, netilmicin/PEP 80 mg/kg netilmicin, 60 min): 70700 ng/mL
- concentration at 120 min ([4]; other: intraduodenal, netilmicin/PEP 80 mg/kg netilmicin, 120 min): 39300 ng/mL
- concentration at 180 min ([4]; other: intraduodenal, netilmicin/PEP 80 mg/kg netilmicin, 180 min): 38900 ng/mL
- concentration at 240 min ([4]; other: intraduodenal, netilmicin/PEP 80 mg/kg netilmicin, 240 min): 35800 ng/mL
- concentration at 360 min ([4]; other: intraduodenal, netilmicin/PEP 80 mg/kg netilmicin, 360 min): 34800 ng/mL
- concentration at 30 min ([4]; other: intraduodenal, netilmicin/PEP (80 mg/kg netilmicin, 400 mg/kg sucrose stearate, glucosamine, methylcellulose), 30 min): 62100 ng/mL
- bioavailability ([4]; netilmicin/PEP 80 mg/kg netilmicin, read-out: percent bioavailability): 73%
Compound: CCN[C@@H]1C[C@H](N)[C@@H](O[C@H]2OC(CN)=CC[C@H]2N)[C@H](O)[C@H]1O[C@H]1OC[C@](C)(O)[C@H](NC)[C@H]1O [Netilmicin]

- percent bioavailability ([5]; teicoplanin/PEP 64 mg/kg teicoplanin): 35.07%
- Average plasma concentration Teicoplanin ([5]; teicoplanin/PEP 64 mg/kg teicoplanin, 60 min): 9.50 µg/mL
- Average plasma concentration Teicoplanin ([5]; teicoplanin/PEP 64 mg/kg teicoplanin, 120 min): 10.36 µg/mL
- Average plasma concentration Teicoplanin ([5]; teicoplanin/PEP 64 mg/kg teicoplanin, 180 min): 12.22 µg/mL
- Average plasma concentration Teicoplanin ([5]; teicoplanin/PEP 64 mg/kg teicoplanin, 240 min): 11.29 µg/mL
- Average plasma concentration Teicoplanin ([5]; teicoplanin/PEP (64 mg/kg teicoplanin, 400 mg/kg sucrose stearate, glucosamine, methylcellulose), 30 min): 11.14 µg/mL
Compound: Teicoplanin

Compound: insulin: insulin given with methylcellulose, sucrose laurate 16 and glucosamine (insulin/PEP composition)
- hypoglycemic effect (serum glucose) [6]: significant hypoglycemic effects were observed
- serum insulin [7]: detected
- hypoglycemic response (serum glucose) [8]: No significant hypoglycemic response

Compound: rhGH: recombinant human growth hormone
- Tmax ([9]; 3 mg/kg): less than 20 min
- absorption of rhGH ([9]; 3 mg/kg): increased absorption
- bioavailability ([9]; 3 mg/kg): 7.1%
- peak serum rhGH concentration ([9]; sc, 0.1 mg/kg): 73 ng/mL
- Concentration rhGH ([10]; 0 min, 5 ng/mL rhGH, phosphate buffer pH 7.4): 5 ng/mL
- Concentration rhGH ([10]; 1 min after shaking, room temperature): 1.05 ng/mL
- Concentration rhGH ([10]; 30 min after shaking, room temperature): 0.65 ng/mL
- Concentration rhGH ([10]; 60 min after shaking, room temperature): 0.43 ng/mL
- Concentration rhGH ([10]; 90 min after shaking, room temperature): 0.40 ng/mL
- rhGH in serum [11]: not detected
